Measurements reported in US10059689B2, “Substituted heteroaryl compounds and methods of use” (Sunshine Lake Pharma Co., Ltd., priority 2014, dated 2018).
pIC50: −log10 of the molar value.

Assays:
JAK1 (h) = target: T1, JAK1 (h) (Homo sapiens, UniProt P23458); assay: JAK1 (h) kinase assay; format: biochemical
T1 construct: purchased Millipore UK Ltd (contract assay service)
Method: The above assay procedure can be used to determine the IC50 for inhibition and/or the inhibition constant, Ki. The IC50 is defined as the concentration of compound required to reduce the enzyme activity by 50% under the condition of the assay. The IC50 value is estimated by preparing a 10 point curve using a ½ log dilution series (for example, a typical curve may be prepared using the following compound concentrations: 3 μM, 1 μM, 0.3 μM, 0.1 μM, 0.03 μM, 0.01 μM, 0.003 μM, 0.001 μM, 0.0003 μM and 0 μM).
JAK1 (h) is incubated with 20 mM Tris/HCl pH 7.5, 0.2 mM EDTA, 500 μM GEEPLYWSFPAKKK, 10 mM MgAcetate and [γ-^33P-ATP] (specific activity approx. 500 cpm/pmol, concentration as required). The reaction is initiated by the addition of the MgATP mix. After incubation for 40 minutes at room temperature, the reaction is stopped by the addition of 3% phosphoric acid solution. 10 μL of the reaction is then spotted onto a P30 filtermat and washed three times for 5 minutes in 75 mM phosphoric acid and once in methanol prior to drying and scintillation counting.
The kinase assays described herein were performed at Millipore UK Ltd, Dundee Technology Park, Dundee DD2 1SW, UK.

[1] = Compound stability in rat liver microsomes; format: in vitro ADME; conditions: for half-life: pH 7.4, 37° C., NADPH, read-out: Rat T1/2; for CLint scaled: pH 7.4, in vivo CLint extrapolated
Method: (§1) Human or rat liver microsomes incubations were conducted in duplicate in polypropylene tubes. The typical incubation mixtures consisted of human or rat liver microsomes (0.5 mg protein/mL), compounds of interest (5 μM) and NADPH (1.0 mM) in a total volume of 200 μL potassium phosphate buffer (PBS, 100 mM, pH 7.4). Compounds were dissolved in DMSO and diluted with PBS such that the final concentration of DMSO was 0.05%. The enzymatic reactions were commenced with the addition of protein after a 3-min preincubation and incubated in a water bath open to the air at 37° C. Reactions were terminated at various time points (0, 5, 10, 15, 30, 60 min) by adding equal volume of ice-cold acetonitrile. The samples were stored at −80° C. until LC/MS/MS assays.
(§2) The concentrations of compounds in the incubation mixtures of human or rat liver microsomes were determined by a LC/MS/MS method. The ranges of the linearity in the concentration range were determined for each tested compounds.
(§3) A parallel incubation was performed using denatured microsomes as the negative control, and reactions were terminated at various time points (0, 15, 60 min) after incubation at 37° C.
(§4) Verapamil (1 μM) was selected as the positive control, and reactions were terminated at various time points (0, 5, 10, 15, 30, 60 min) after incubation at 37° C. Both positive and negative control samples were included in each assay to ensure the integrity of the microsomal incubation system.
(§5) In addition, the stability date of compound in human and rat liver microsomes was also obtained through the following method. Human or rat liver microsomes incubations were conducted in duplicate in polypropylene tubes. The typical incubation mixtures consisted of human or rat liver microsomes (0.5 mg protein/mL), compounds of interest (1.5 μM) and EDTA (1.0 mM) in a total volume of 30 μL potassium phosphate buffer (PBS, 100 mM, pH 7.4). Compounds were dissolved in DMSO and diluted with PBS such that the final concentration of DMSO was 0.2%. The enzymatic reactions were commenced with the addition of 15 μL NADPH (final concentration: 2 mM) after a 10-min preincubation and incubated in a water bath open to the air at 37° C. Reactions were terminated at various time points (0, 15, 30, 60 min) by adding 135 μL acetonitrile (contain IS). The samples were centrifuged at 4000 rpm for 10 min to remove protein, the supernatant was stored at −80° C. until LC/MS/MS assays. Ketanserin (1 μM) was selected as the positive control, and reactions were terminated at various time points (0, 15, 30, 60 min) after incubation at 37° C. Both positive and negative control samples were included in each assay to ensure the integrity of the microsomal incubation system.
(§6) The concentrations of compounds in human or rat liver microsome incubations were plotted as a percentage of the relevant zero time point control for each reaction. The in vivo CLint were extrapolated (ref.: Naritomi, Y.; Terashita, S.; Kimura, S.; Suzuki, A.; Kagayama, A.; and Sugiyama, Y.; Prediction of human hepatic clearance from in vivo animal experiments and in vitro metabolic studies with liver microsomes from animals and humans. Drug Metab. Dispos., 2001, 29: 1316-1324).

[2] = Compound stability in human liver microsomes; format: in vitro ADME; conditions: for half-life: pH 7.4, 37° C., NADPH, read-out: Human T1/2; for CLint scaled: pH 7.4, in vivo CLint extrapolated
Method: as §1, §2, §3, §4, §5, §6

[3] = Pharmacokinetics after intravenous and oral administration in rats; format: in vivo; conditions: for clearance (CL) / AUC(0-t) / half-life / Vd: iv dosing, 1 mg/kg; for F: oral bioavailability; for AUC(0-t) / half-life / Vd: rat, plasma; for Vd: read-out: Vss
Method: The LC/MS/MS system used in the analysis consists of an Agilent 1200 Series vacuum degasser, binary pump, well-plate autosampler, thermostatted column compartment, the Agilent G6430 Triple Quadrupole Mass Spectrometer with an electrosprayionization (ESI) source. Quantitative analysis was carried out using MRM mode. The parameters for MRM transitions are in the Table A.
An Agilent XDB-C18, 2.1×30 mm, 3.5 μM column was used for the analysis. 5 μL of the samples were injected. Analysis condition: The mobile phase was 0.1% formic acid in water (A) and 0.1% formic acid in methanol (B). The flow rate was 0.4 mL/min. And the gradient of Mobile phase was in the Table B.
Alternatively, an Agilent 6330 series LC/MS/MS spectrometer equipped with G1312A binary pumps, a G1367A autosampler and a G1314C UV detector were used in the analysis. An ESI source was used on the LC/MS/MS spectrometer. The analysis was done in positive ion mode as appropriate and the MRM transition for each analyte was optimized using standard solution. A Capcell MP-C18 100×4.6 mm I.D., […] column (Phenomenex, Torrance, Calif., USA) was used during the analysis. The mobile phase was 5 mM ammonia acetate, 0.1% MeOH in water (A): 5 mM ammonia acetate, 0.1% MeOH in acetonitrile (B) (70:30, v/v). The flow rate was 0.6 mL/min. Column was maintained at ambient temperature. 20 μL of the samples were injected.
The compounds disclosed herein are assessed in pharmacokinetic studies in mice, rats, dogs or monkeys. The compounds are administered as a water solution, 2% HPMC+1% TWEEN®80 in water solution, 5% DMSO+5% solutol in saline, 4% MC suspension or capsule. For the intravenous administration, the animals are generally given at 1 or 2 mg/kg dose. For the oral (p.o.) dosing, mice and rats are generally given 5 or 10 mg/kg dose, and dogs and monkeys are generally given 10 mg/kg dose. The blood samples (0.3 mL) are drawn at 0.25, 0.5, 1.0, 2.0, 3.0, 4.0, 6.0, 8.0, 12 and 24 h time points or 0.083, 0.25, 0.5, 1.0, 2.0, 4.0, 6.0, 8.0 and 24 h time points and centrifuged at 3,000 or 4000 rpm for 2 to 10 min. The plasma solutions are collected, and stored at −20° C. or −70° C. until analyzed by LC/MS/MS as described above.

T1 sequence (P23458 whole entry): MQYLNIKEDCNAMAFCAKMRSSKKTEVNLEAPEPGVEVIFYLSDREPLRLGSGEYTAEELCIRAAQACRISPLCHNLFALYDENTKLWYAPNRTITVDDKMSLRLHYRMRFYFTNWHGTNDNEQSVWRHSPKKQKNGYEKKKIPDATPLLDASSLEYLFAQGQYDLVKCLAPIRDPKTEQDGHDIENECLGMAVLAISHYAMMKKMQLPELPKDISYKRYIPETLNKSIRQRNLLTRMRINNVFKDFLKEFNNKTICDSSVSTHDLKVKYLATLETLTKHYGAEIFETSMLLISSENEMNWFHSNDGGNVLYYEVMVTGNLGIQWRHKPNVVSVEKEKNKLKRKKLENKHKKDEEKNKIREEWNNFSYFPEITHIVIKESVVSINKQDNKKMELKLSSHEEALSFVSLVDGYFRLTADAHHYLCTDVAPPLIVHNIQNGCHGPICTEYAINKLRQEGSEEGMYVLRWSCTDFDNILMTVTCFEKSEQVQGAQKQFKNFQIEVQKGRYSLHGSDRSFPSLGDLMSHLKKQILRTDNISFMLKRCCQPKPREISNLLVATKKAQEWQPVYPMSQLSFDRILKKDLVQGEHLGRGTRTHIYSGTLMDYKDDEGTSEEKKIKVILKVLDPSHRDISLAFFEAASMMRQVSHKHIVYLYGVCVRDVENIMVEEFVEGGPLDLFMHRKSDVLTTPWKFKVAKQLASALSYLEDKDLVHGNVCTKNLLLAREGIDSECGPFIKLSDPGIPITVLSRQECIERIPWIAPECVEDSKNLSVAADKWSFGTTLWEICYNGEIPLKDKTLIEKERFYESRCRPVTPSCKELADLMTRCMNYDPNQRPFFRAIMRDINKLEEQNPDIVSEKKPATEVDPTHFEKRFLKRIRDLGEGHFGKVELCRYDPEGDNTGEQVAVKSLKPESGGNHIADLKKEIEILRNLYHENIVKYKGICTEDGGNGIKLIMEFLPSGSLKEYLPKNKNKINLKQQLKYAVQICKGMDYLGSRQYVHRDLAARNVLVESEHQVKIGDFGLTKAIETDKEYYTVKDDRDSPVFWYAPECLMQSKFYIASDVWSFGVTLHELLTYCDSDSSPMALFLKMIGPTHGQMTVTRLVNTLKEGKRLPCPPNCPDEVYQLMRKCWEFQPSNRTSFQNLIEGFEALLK

Structure (SMILES) | pIC50 (JAK1 (h)) | half-life [1] [min] | CLint scaled [1] [mL/min/kg] | half-life [2] [min] | CLint scaled [2] [mL/min/kg] | clearance (CL) [3] [mL/min/kg] | F [3] [%] | AUC(0-t) [3] [ng·h/mL] | half-life [3] [min] | Vd [3] [L/kg]
Cc1cnc(Nc2cnn(C)c2)nc1N(C)C1CCN(c2ccc(C#N)cn2)CC1 [Ex. 6, 6-(4-(methyl(5-methyl-2-((1-methyl-1H-pyrazol-4-yl)amino)pyrimidin-4-yl)amino)piperidin-1-yl)nicotinonitrile] | 8.70 | 4.3 | 577 | 15.6 | 111 | 20.2 | 22.2 | 1360 | 35.9 | 0.56
Cc1c2ccc(Nc3ncc(Cl)c(N(C)C4CCN(c5ccc(C#N)cn5)CC4)n3)cc2nn1C [Ex. 8, 6-(4-((5-chloro-2-((2,3-dimethyl-2H-indazol-6-yl)amino)pyrimidin-4-yl) (methyl)amino)piperidin-1-yl)nicotinonitrile] | 8.52 | – | – | – | – | – | – | – | – | –
CCC1CN(c2ccc(C#N)cn2)CCC1Nc1nc(Nc2cn(C)nc2C)ncc1Cl (stereo not drawn) [Ex. 16, 6-(4-((5-chloro-2-((1,3-dimethyl-1H-pyrazol-4-yl)amino)pyrimidin-4-yl)amino)-3-ethylpiperidin-1-yl)nicotinonitrile] | – | 6.85 | 363 | 3.94 | 442 | 23.3 | 60.9 | 722 | 39.6 | 0.96
CCC1CN(c2ccc(C#N)nn2)CCC1Nc1nc(Nc2ccc3c(C)n(C)nc3c2)ncc1Cl (stereo not drawn) [Ex. 17, 6-(4-((5-chloro-2-((2,3-dimethyl-2H-indazol-6-yl)amino)pyrimidin-4-yl)amino)-3-ethylpiperidin-1-yl)pyridazine-3-carbonitrile] | – | 3.81 | 652 | 11.1 | 156 | 18.3 | 36.0 | 911 | 40.2 | 0.45
CCC1CN(c2ccc(C#N)nn2)CCC1Nc1ccnc(Nc2cc(C)n(C)n2)n1 (stereo not drawn) [Ex. 22, 6-(4-((2-((1,5-dimethyl-1H-pyrazol-3-yl)amino)pyrimidin-4-yl)amino)-3-ethylpiperidin-1-yl)pyridazine-3-carbonitrile] | – | 45.5 | 54.6 | 62.6 | 27.8 | 33.2 | 62.7 | 512 | 39.6 | 1.66
CCC1CN(c2ccc(C#N)cn2)CCC1Nc1nc(Nc2ccc3c(C)n(C)nc3c2)ncc1Cl (stereo not drawn) [Ex. 23] | – | 20.4 | 121 | 15.5 | 112 | 6.83 | 31.0 | 2430 | 81 | 0.84
Cc1c2ccc(Nc3ncc(Cl)c(N(C)C4CCN(c5ccc(C#N)nn5)CC4)n3)cc2nn1C [Ex. 24] | – | 7.12 | 349 | 6.4 | 272 | – | – | – | – | –

Second part, the compound after the results:

pIC50 (JAK1 (h)) | half-life [1] [min] | CLint scaled [1] [mL/min/kg] | half-life [2] [min] | CLint scaled [2] [mL/min/kg] | clearance (CL) [3] [mL/min/kg] | F [3] [%] | AUC(0-t) [3] [ng·h/mL] | half-life [3] [min] | Vd [3] [L/kg] | Structure (SMILES)
– | 37.6 | 66.1 | 22.9 | 75.9 | 23.7 | 66.8 | 663 | 109 | 2.88 | CCC1CN(c2ccc(C#N)cn2)CCC1N(C)c1nc(Nc2cc(C)n(C)n2)ncc1Cl (stereo not drawn) [Ex. 18, 6-(4-((5-chloro-2-((1,5-dimethyl-1H-pyrazol-3-yl)amino)pyrimidin-4-yl) (methyl)amino)-3-ethylpiperidin-1-yl)nicotinonitrile]
– | 6.55 | 379 | 10.5 | 165 | 43.8 | 23.4 | 381 | 27 | 1.4 | CCC1CN(c2ccc(C#N)nn2)CCC1N(C)c1nc(Nc2ccc3c(C)n(C)nc3c2)ncc1Cl (stereo not drawn) [Ex. 19, 6-(4-((5-chloro-2-((2,3-dimethyl-2H-indazol-6-yl)amino)pyrimidin-4-yl)(methyl)amino)-3-ethylpiperidin-1-yl)pyridazine-3-carbonitrile]
– | 15 | 166 | 26 | 66.9 | 18.3 | 30.4 | 881 | 90 | 1.9 | CCC1CN(c2ccc(C#N)cn2)CCC1N(C)c1nc(Nc2ccc3c(C)n(C)nc3c2)ncc1Cl (stereo not drawn) [Ex. 20, 6-(4-((5-chloro-2-((2,3-dimethyl-2H-indazol-6-yl)amino)pyrimidin-4-yl)(methyl)amino)-3-ethylpiperidin-1-yl)nicotinonitrile]
– | 38.8 | 64 | 17.9 | 97.3 | 6.83 | 106.1 | 2320 | 93.6 | 0.81 | CCC1CN(c2ccc(C#N)cn2)CCC1Nc1nc(Nc2cc(C)n(C)n2)ncc1Cl (stereo not drawn) [Ex. 21, 6-(4-((5-chloro-2-((1,5-dimethyl-1H-pyrazol-3-yl)amino)pyrimidin-4-yl)amino)-3-ethylpiperidin-1-yl)nicotinonitrile]
